In US20240033257A1, “USE OF PPAR-DELTA INHIBITOR IN COMBINATION WITH IMMUNOTHERAPEUTIC DRUG FOR PREPARING ANTI-TUMOR DRUG” (THE FIRST HOSPITAL OF JILIN UNIVERSITY, priority 2021, published 2024):

Legend:
[1] = test system: CD19+CD24hiIgDlo/− B cells; assay: Surface marker, PPARδ and Ki67 flow cytometry of B cell subpopulations in draining lymph nodes; assay type: in vivo, mouse
Method: For verifying this assumption, the experimental scheme of Example 4 was used. The mice of all groups were sacrificed at the 24th hour after the last injection of GSK3787 (i.e., the 72nd hour after the last FGK45.5 injection), and various surface marker analyses were conducted on the B cells isolated from lymph nodes of tumor-bearing mice to identify surface markers of B cell subpopulations having immunosuppressive effects and the effects of different treatments on B cell subpopulations having immunosuppressive effects.
At the 24th hour after the last GSK3787 injection, tumor draining lymph nodes of differently treated mice were sampled. The lymph nodes at the same body portion in natural, tumor-free mice were also sampled as the control group. The lymph nodes were ground into single-cell suspension. Cells from different lymph nodes were stained using various fluorescence labeling antibodies for flow cytometry assays.

[2] = test system: B16 tumor cells (mouse melanoma cells); assay: B16 melanoma tumor-bearing mouse model, tumor growth; assay type: in vivo; conditions: low-dose FGK45.5 (75 μg in total); inhibitors intraperitoneal once a day Day 7 to Day 16; FIG. 2a
Method: We used a mouse B16 melanoma model extensively used in researches and having relatively high immunogenicity (C57BL/6 B16 Tumor-Bearing Mouse Model): C57BL/6 mice (8-10-week-old, n=5/group) were subcutaneously inoculated with 7×10^5 B16 tumor cells (mouse melanoma cells), and about 8 days after inoculation of tumor cells when tumors became touchable, anti-CD40 agonistic antibody was administered.
The mice were monitored every day, and tumors were measured with calipers every four days. The tumors were measured for length (a) and width (b), and tumor volume=ab^2/2.
Dosage regimen: These tumor-bearing mice were treated using low-dose 25 μg of FGK45.5 (mouse anti-CD40 agonistic antibody) for three times, 75 μg in total (at Day 8, Day 11, and Day 14) or high-dose 40 μg for 5 times, 200 μg in total (at Day 8, Day 11, Day 14, Day 17, and Day 20) or 40 μg with Isotype Control Rat IgG for 5 times (at Day 8, Day 11, Day 14, Day 17, and Day 20). Subcutaneous injection was made between the tumor and the draining lymph node at the groin. 72 hours after the last injection of each group, samples of mouse blood serum were tested for alanine transaminase (ALT, a known indicator of liver tissue injury).
The establishment of the B16 melanoma tumor-bearing mouse model and the dosage regimens of low-dose and high-dose FGK45.5 followed Example 1. […]

[3] = test system: CD19+CD24hiIgDlo/− B cells; assay: Co-culture of sorted B cell subpopulations from treated mice with CFSE-labelled CD4+ T cells; assay type: cell-based, mouse; conditions: B cells:T cells 1:1, 72 hours; FIG. 8a
Method: For evaluating the function-regulating effects on CD19^+CD24^hiIgD^lo/− B cells, the experimental scheme of Example 4 was employed. 24 hours after the last GSK3787 injection (i.e., 72 hours after the last FGK45.5 injection), mice of all groups were sacrificed. CD19^+CD24^hiIgD^lo/− B cell population and CD19^+CD24^loIgD^hiB cell population were isolated form draining lymph nodes of differently treated tumor-bearing mice using flow cytometry. Purified CD4^+ T cells from normal mice were labelled with 2.5 μM CFSE in vitro. The CFSE-labelled cells were resuspended in complete RPMI 1640 culture medium at 1×10^6/ml, and transferred into a 96-well plate coated with 10 μg/ml anti-CD3E antibody at 4° C. overnight. The B cells purified from draining lymph nodes and the foregoing T cells (1:1) were co-cultured for 72 hours in the foregoing 96-well plate containing 1 μg/ml anti-CD28 mAb for use in flow cytometry assays. The proliferation of the CFSE-labelled T cells was calculated using the equation: (1-MFI value of CFSE of T Cells in Experimental Group/MFI value of CFSE of B-cell-free T Cells in Control Group)[…].

[4] = test system: human CD19+CD24hiIgDlo/− B cells; assay: Suppression of T cell IFNγ secretion by human CD19+CD24hiIgDlo/− B cells cultured with GSK3787; assay type: cell-based; conditions: cultured 24 hours with GSK3787
Method: B cells were isolated and gathered from the peripheral blood of multiple normal blood donors or patients, and CD19^+CD24^hiIgD^lo/− B cells were isolated from the gathered B cells and cultured for 24 hours in complete RPMI 1640 culture medium with or without the PPARδ inhibitor GSK3787. Then these B cells were washed twice to remove the PPARδ inhibitor, resuspended in complete RPMI 1640 culture medium at 1×10^6/ml. CD4^+CD25^− T cells were isolated from blood of normal blood donors. The treated CD19^+CD24^hiIgD^lo/− B cells and these T cells (1:1) were co-cultured for 48 hours, Dynabeads were coated with anti-human CD3 mAb and anti-human CD28 mAb and placed on a 96-well U-shaped culture plate. Golgi^plug (BD Biosciences), PMA and ionomycin were added into the culture medium together for 6 hours. CD4^+ T cells were surface stained, perforated in the cytomembrane, and stained intracellularly using fluorescence labelled anti-human IFNγ, then analyzed using flow cytometry.

[5] = test system: lymphocytes in draining lymph nodes; assay: Lymphocyte subpopulations in draining lymph nodes of B16 tumor-bearing mice (flow cytometry, cell counting); assay type: in vivo, mouse
Method: The C57BL/6 B16 tumor-bearing mouse model (mice subcutaneously inoculated with 7×10^5 B16 cells, 8 days after inoculation of tumor cells, mice with tumors touchable) of Example 1 was used. The experiment included the treatment group of low-dose FGK45.5, the treatment group of low-dose FGK45.5 in combination with the PPARδ inhibitor, the treatment group of using the PPARδ inhibitor solely, and the isotype control Rat IgG treatment group. 24 hours after the last injection of GSK3787 (i.e., 72 hours after the last FGK45.5 injection), the mice of all group were sacrificed. Cells at lymph nodes of mice from all groups were sampled for flow cytometry assays and cell counting.

[6] = test system: MB49 cells (mouse bladder cancer cells); assay: MB49 bladder cancer tumor-bearing mouse model, tumor growth; assay type: in vivo; conditions: doses and regimens of FIG. 2a; FIG. 9
Text: From the results above, we anticipate that the PPARδ inhibitor could also enhance therapeutic effects of immunotherapeutic drug on tumors in other tumor models. In order to verify such possibility, we examined the therapeutic effects of the PPARδ inhibitor in combination with FGK45.5 on MB49 bladder cancer cell tumor-bearing mice. C57BL/6 mice (8 to 10 weeks, n=5/group, 4 groups) are subcutaneously inoculated with 7×10^5 MB49 cells (mouse bladder cancer cells) and about 8 days after inoculation of tumor cells when tumors became touchable, Rat IgG, or FGK45.5, or PPARδ inhibitor (GSK3787), or FGK45.5 in combination with PPARδ inhibitor (GSK3787) was administered. Tumor growth condition was monitored.

[7] = test system: B cells from draining lymph nodes; assay: Inhibition of CFSE-labelled CD4+ T cell proliferation by B cells from draining lymph nodes of treated tumor-bearing mice; assay type: cell-based, mouse; conditions: B cells:T cells 1:1, co-cultured 72 hours; FIG. 5a
Method: The next point was to verify whether the PPARδ inhibitor enhances immunotherapy through affecting B cells. First, the ability of B cells in draining lymph nodes of tumor-bearing mice treated differently to inhibit proliferation of activated T cells was examined in vitro. Purified C D4^+ T cells from normal mice were labelled using 2.5 μM CFSE in vitro. The CFSE-labelled cells were then resuspended in complete RPMI 1640 culture medium at 1×10^6/ml, and transferred into a 96-well plate that had been coated with 10 μg/ml anti-CD3ε antibody at 4° C. overnight. B cells purified from draining lymph nodes and the foregoing T cells (1:1) were co-cultured for 72 hours in the foregoing 96-well plate containing 1 μg/ml anti-CD28 mAb, and a flow cytometry assay was conducted. The cell proliferation rate of the CFSE-labelled T cells was calculated using the equation: (1-MFI value of CFSE of T Cells in Experimental Group/MFI value of CFSE of B-cell-free T Cells in Control Group)×100%. MFI refers to the mean fluorescence intensity.

B16 tumor = assay: CD19+ B cell eradication experiment in B16 tumor-bearing mice, tumor growth; assay type: in vivo, mouse; conditions: 250 μg anti-CD19 antibody (clone 1d3) intraperitoneal at day 6, 7 and 15; low-dose FGK45.5; FIG. 5b
Method: To some of the B16 tumor-bearing mice, the anti-CD19 antibody was used first to kill B cells, and then Rat IgG or FGK45.5 or FGK45.5 combined with the PPARδ inhibitor (GSK3787) was administered for treatment. Growth of the tumors was observed. Treatment with Rat IgG, FGK45.5, and FGK45.5 in combination with the PPARδ inhibitor were taken as control groups.
CD19^+ B cell Eradication Experiment: At the 6th day, 7th day, and 15th day after inoculation of B16 cells, 250 μg anti-CD19 antibody (clone 1d3) was administered to tumor-bearing mice through intraperitoneal injection, and the eradication rate of B cells as measured using FACS should be 90% or more.

Row | SMILES | proportion of the CD19+CD24hiIgDlo/− B cell subpopulation in draining lymph nodes ([1]; B16 tumor-bearing mice, 24th hour after last GSK3787 injection, FIGS. 7a, b) | Ki67 expression of CD19+CD24hiIgDlo/− B cells ([1]; FIG. 7e, f) | anti-tumor effects (speed of tumor growth) [2] | suppressive effects of CD19+CD24hiIgDlo/− B cells from draining lymph nodes of tumor-bearing mice on proliferation of activated CD4+ T cells [3] | suppressive activity of human CD19+CD24hiIgDlo/− B cells (IFNγ secretion of activated T cells) ([4]; B cells of cancer patients (NSCLC)) | suppressive activity of human CD19+CD24hiIgDlo/− B cells (IFNγ secretion of activated T cells) ([4]; B cells of healthy subjects) | proportions of CD4/CD19 cells in draining lymph nodes ([5]; FIG. 4c) | absolute count of CD45+ cells in draining lymph nodes ([5]; low-dose FGK45.5, 24 hours after last GSK3787 injection, FIG. 4a) | absolute count and proportion of CD11c+ cells in draining lymph nodes ([5]; low-dose FGK45.5, FIG. 4b) | cell counts of CD4+ T and CD8+ T cells and their proportions in CD45+ cells in draining lymph nodes ([5]; low-dose FGK45.5, FIG. 4b) | therapeutic effects on MB49 tumors, GSK3787 in combination with FGK45.5 [6] | therapeutic effects on MB49 tumors, used solely [6] | inhibition of CD4 T cell proliferation by B cells from draining lymph nodes of treated tumor-bearing mice [7] | therapeutic effects on B16 tumors with B cells eradicated (B16 tumor)
1 | O=C(NCCS(=O)(=O)c1ccc(C(F)(F)F)cn1)c1ccc(Cl)cc1 [GSK3787] | decreased significantly | reduced increase in Ki67 expression | almost no anti-tumor effects | reduced suppressive effects | significantly reduced | significantly reduced | basically comparable | did not change | basically the same | consistent | could further improve the effect of FGK45.5 | no therapeutic effects | decreased inhibition | lost its function of enhancing anti-tumor effects of FGK45.5
2 | O=C(Nc1ccncc1)c1cc([N+](=O)[O-])ccc1Cl [T0070907] |  |  | almost no anti-tumor effects |  |  |  |  |  |  |  |  |  |  | 
